The subject of data set [1] is cHet primary cortical neurons. The data set is described as follows: In vitro primary cortical neuron culture, Sholl analysis of Ctip2+ neurons. Format: cell-based, mouse. Here is the method: Lastly, to test whether (1-3)IGF-1 treatment rescues the decreased complexity of Dyrk1a cHet neurons, we cultured control and cHet primary cortical neurons. Neurons analyzed were restricted to Ctip2+ neurons, as we are focused on the impact of Dyrk1a mutations on the growth and connectivity of layer V pyramidal neurons.
In vitro primary neuronal culture: Brains from P0 mice were removed, and whole cortices were dissected. Individual cortices were placed into 1 mL chilled dissecting media (1× HBSS (14175-095), 30 mM glucose, 60 μM HEPES). After aspiration of the dissecting media, the tissue was enzymatically dissociated with papain (LS003126) that was previously diluted 1:80 in pre-warmed plating media [Neurobasal A (10888-022), 5% FBS (16000044), and 1% penicillin/streptomycin (p/s)/0.25% glutamine (10378-016)] and incubated at 37° C. for 15 min. The papain was removed, and the tissue was pipetted into a single-cell suspension in plating media. The suspensions were filtered using 40 μm nylon cell strainers (Fisher Scientific, #352340), and the filtered suspension was centrifuged at 280 RCF for 5 min. […] Samples of the suspensions were diluted 1:4 in trypan blue, and cells were counted with a manual hemocytometer for determination of sample concentration. […]
All coverslip images were taken at 40× magnification on an Olympus VS-120 epifluorescence microscope and analyzed with ImageJ (NIH). […]

The test system of the next data set is ASD mouse models. The conditions noted are these: cited from earlier work.

“Also recorded” adds a separate entry of the source.

The source of these data is patent publication US20240148835A1, “TREATING DISORDERS ASSOCIATED WITH DYRK1A DYSFUNCTION” (UNIVERSITY OF FLORIDA RESEARCH FOUNDATION, INCORPORATED, priority 2021, published 2024).

Turning to “(1-3)IGF-1: a tripeptide cleaved from the N-terminus of IGF-1; acquired from VWR/Bachem, CAS No. 32302-76-4 (GPE; Insulin-like growth factor 1; UniProt P05019 49-51, looked up, fragment)”, the “neuronal complexity (Sholl arborization) of cHet neurons” value in data set [1] (100 ng/mL daily from DIV13 to DIV15, Ctip2+ neurons, DIV15) is “rescued; also recorded: rescues decreased arborization”. In addition, the “neuronal complexity of control neurons” value in data set [1] (100 ng/mL daily from DIV13 to DIV15, DIV15) was “did not affect control neurons”. Besides, the brain penetrance result in the data set on ASD mouse models (ASD mouse models, dosage 10 μg/g (10 mg kg)) is “brain penetrance”. Moreover, the “signaling downstream of IGF-1” value in the data set on ASD mouse models (within 3 hours post-injection) is reported as “increased signaling downstream of IGF-1”.
